Data: publication PMC9652372, “Glycolytic flux control by drugging phosphoglycolate phosphatase” (Nature Communications, 2022)
Numbering of substitutions follows the chain as printed. Values joined by “and” are separate entries in the source; they are usually repeats but may differ in a detail not shown here. Equal entries are not always repeated.

Tests used:
[1] = molecular target: T1, murine PGP-WT / PGP-C297S (Mus musculus, UniProt Q8CHP8); assay: Size-exclusion chromatography, PGP self-association; conditions: SEC, PGP-WT 30 µM; CP1 100 µM
T1 construct: His6 (N, cleaved yes); made in house; host or cells: Escherichia coli BL21 (DE3)
T1 sequence (Q8CHP8 1-321): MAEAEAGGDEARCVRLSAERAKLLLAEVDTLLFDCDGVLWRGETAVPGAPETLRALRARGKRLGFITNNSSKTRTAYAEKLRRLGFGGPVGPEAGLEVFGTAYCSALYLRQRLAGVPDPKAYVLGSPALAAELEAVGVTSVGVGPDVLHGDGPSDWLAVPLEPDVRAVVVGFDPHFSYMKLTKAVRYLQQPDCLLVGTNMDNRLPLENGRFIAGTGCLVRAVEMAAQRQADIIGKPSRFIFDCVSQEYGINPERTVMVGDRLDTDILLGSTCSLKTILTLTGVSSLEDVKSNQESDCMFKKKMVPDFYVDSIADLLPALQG
Description: (§1) A volume of 900 µL was loaded onto a Superdex 200 10/300GL (Cytiva) size exclusion chromatography column operated on an ÄKTA liquid chromatography system.
(§2) Error bars not shown are hidden by the symbols. (c) PGP self-association in the absence or presence of CP1. Size- exclusion chromatography (SEC) of purified, recombinant murine PGP-WT in comparison to PGP-C297 […]
(§3) (1 picture or pasted object on this page, not shown here)
(§4) (100 µM). SEC profiles of PGP -WT are the mean of n=3 independent experiments; PGP -C297S […]
(§5) independent experiments. Statistical testing was done using a two-sided t-test, and the p- value

[2] = molecular target: T2, murine PGP-WT / PGP-C297S (Mus musculus, UniProt Q8CHP8, C297S); assay: as above; conditions: SEC; 100 µM CP1
T2 construct: His6 (N, cleaved yes); made in house; host or cells: Escherichia coli BL21 (DE3)
T2 sequence (Q8CHP8 1-321 C297S): T1 sequence (Q8CHP8 1-321) with C297S
Description: as §1, §2, §3, §4, §5

[3] = molecular target: T3, murine PGP (Mus musculus, UniProt Q8CHP8); assay: IC50 determination, murine PGP, 2-phospho-L-lactate (2PL) dephosphorylation; conditions: for M.m PGP on 2- Phospho-L-lactate: activity, control = 100
T3 sequence (Q8CHP8 1-321): T1 sequence (Q8CHP8 1-321)

Structure (SMILES): O=C(Nc1ccccc1C(=O)O)c1ccc(Oc2ccc(C(=O)Nc3ccccc3C(=O)O)cc2)cc1 [CP1]
- max. peak height of PGP tetramer/PGP total [1]: 0.166 and 0.138 and 0.1887
- effect on PGP^C297S self-association [2]: did not affect
- IC50 [3]: 310 ± 30 nM
- M.m PGP on 2- Phospho-L-lactate ([3]; CP1 log[M] -5.04576): 4.1667 and 4.9853 and 5.6548
- M.m PGP on 2- Phospho-L-lactate ([3]; CP1 log[M] -5.52288): 7.7778 and 8.7977 and 9.2262
- M.m PGP on 2- Phospho-L-lactate ([3]; CP1 log[M] -6): 23.0556 and 24.9267 and 23.8095
- M.m PGP on 2- Phospho-L-lactate ([3]; CP1 log[M] -6.47712): 45.5556 and 51.3196 and 45.8333
- M.m PGP on 2- Phospho-L-lactate ([3]; CP1 log[M] -6.95424): 73.3333 and 81.2317 and 78.869
- M.m PGP on 2- Phospho-L-lactate ([3]; CP1 log[M] -7.43136): 88.6111 and 95.3079 and 85.7143
- M.m PGP on 2- Phospho-L-lactate ([3]; CP1 log[M] -7.90849): 96.3889 and 100.293 and 92.8571
